Test results published in ChEMBL document CHEMBL4311992, “Discovery of 3-(((9H-purin-6-yl)amino)methyl)-4,6-dimethylpyridin-2(1H)-one derivatives as novel tubulin polymerization inhibitors for treatment of cancer” (Eur J Med Chem, 2019).

How the values were obtained:
[1] = system: TGF-beta receptor type-1 (Homo sapiens), P36897 [T204D]; assay: Inhibition of human TGFBR1 T204D mutant (200 to end residues) using casein as substrate measured after 40 mins in presence of [gamma33P]ATP by scintillation counting method; parameters: scale not given: the % may be the effect or the level left
[2] = target: Serine/threonine-protein kinase SIK3 (Homo sapiens) (UniProt Q9Y2K2); assay: Inhibition of human SIK3 (1 to 307 residues) using KKKVSRSGLYRSPSMPENLNRPR as substrate measured after 40 mins in presence of [gamma33P]ATP by scintillation counting method; parameters: scale not given: the % may be the effect or the level left
[3] = target: MAP/microtubule affinity-regulating kinase 3 (Homo sapiens) (UniProt P27448); assay: Inhibition of recombinant full-length human MARK3 assessed as residual activity at 10 uM using KKKVSRSGLYRSPSMPENLNRPR as substrate measured after 40 mins in presence of [gamma33P]ATP by scintillation counting method
Homo sapiens = species: Homo sapiens; assay: Inhibition of recombinant human MARK1 T20S mutant (2 to end residues) assessed as residual activity at 10 uM using KKKVSRSGLYRSPSMPENLNRPR as substrate measured after 40 mins in presence of [gamma33P]ATP by scintillation counting method
[4] = target: Cyclin-dependent kinase-like 1 (Homo sapiens) (UniProt Q00532); assay: Inhibition of recombinant human CDKL1 (1 to 303 residues) assessed as residual activity at 10 uM using RRRFRPASPLRGP as substrate measured after 120 mins in presence of [gamma33P]ATP by scintillation counting method
[5] = target: Histone-lysine N-methyltransferase EZH2 (Homo sapiens) (UniProt Q15910); assay: Inhibition of EZH2 (unknown origin) at 10 uM relative to control
[6] = system: Serine/threonine-protein kinase B-raf (Homo sapiens), P15056 [V600E]; assay: Inhibition of recombinant human BRAF V599E mutant (416 to end residues) assessed as residual activity at 10 uM using myelin basic protein as substrate measured after 40 mins in presence of [gamma33P]ATP by scintillation counting method
[7] = target: Inhibitor of nuclear factor kappa-B kinase subunit epsilon (Homo sapiens) (UniProt Q14164); assay: Inhibition of recombinant full-length human IKKepsilon assessed as residual activity at 10 uM using casein as substrate measured after 40 mins in presence of [gamma33P]ATP by scintillation counting method
[8] = target: Serine/threonine-protein kinase ICK (Homo sapiens) (UniProt Q9UPZ9); assay: Inhibition of recombinant human ICK (1 to 312 residues) assessed as residual activity at 10 uM using RRRFRPASPLRGPPK as substrate measured after 40 mins in presence of [gamma33P]ATP by scintillation counting method
[9] = target: Fibroblast growth factor receptor 1 (Homo sapiens) (UniProt P11362); assay: Inhibition of recombinant human FGFR1 (456 to 765 residues) assessed as residual activity at 10 uM using KKKSPGEYVNIEFG as substrate measured after 40 mins in presence of [gamma33P]ATP by scintillation counting method
[10] = target: Serine/threonine-protein kinase DCLK2 (Homo sapiens) (UniProt Q8N568); assay: Inhibition of recombinant human DCAMKL2 (376 to end residues) assessed as residual activity at 10 uM using KKLNRTLSFAEPG as substrate measured after 40 mins in presence of [gamma33P]ATP by scintillation counting method
[11] = target: Citron Rho-interacting kinase (Homo sapiens) (UniProt O14578); assay: Inhibition of recombinant human CRIK assessed as residual activity at 10 uM using KKLRRTLSVA as substrate measured after 120 mins in presence of [gamma33P]ATP by scintillation counting method
[12] = target: CDK12/Cyclin K (Homo sapiens) (UniProt O75909+Q9NYV4); assay: Inhibition of recombinant full length human CDK12/cyclinK assessed as residual activity at 10 uM using RSRSRSRSRSRSRSR as substrate measured after 120 mins in presence of [gamma33P]ATP by scintillation counting method; assay type: protein-complex assay
[13] = target: Casein kinase I (Homo sapiens) (UniProt Q9HCP0+P78368+P48730+P49674+P48729); assay: Inhibition of CK1 (unknown origin) assessed as residual activity at 10 uM; assay type: protein assay
[14] = system: Epidermal growth factor receptor (Homo sapiens), P00533 [T790M]; assay: Inhibition of recombinant human EGFR T790M mutant (696 to end residues) assessed as residual activity at 10 uM using GGMEDIYFEFMGGKKK as substrate measured after 40 mins in presence of [gamma33P]ATP by scintillation counting method
[15] = target: Mitogen-activated protein kinase 1 (Homo sapiens) (UniProt P28482); assay: Inhibition of human MAPK2 assessed as residual activity at 10 uM
[16] = target: Dual specificity mitogen-activated protein kinase kinase 4 (Homo sapiens) (UniProt P45985); assay: Inhibition of recombinant human MKK4 (34 to end residues) assessed as residual activity at 10 uM using unactive JNK1a1 as substrate measured after 40 mins in presence of [gamma33P]ATP by scintillation counting method
[17] = target: Platelet-derived growth factor receptor beta (Homo sapiens) (UniProt P09619); assay: Inhibition of recombinant human PDGFRbeta (557 to end residues) assessed as residual activity at 10 uM using poly(Glu, Tyr) 4:1 as substrate measured after 40 mins in presence of [gamma33P]ATP by scintillation counting method
[18] = target: Serine/threonine-protein kinase pim-1 (Homo sapiens) (UniProt P11309); assay: Inhibition of recombinant full-length human Pim1 assessed as residual activity at 10 uM using KKRNRTLTV as substrate measured after 40 mins in presence of [gamma33P]ATP by scintillation counting method
[19] = target: SRSF protein kinase 1 (Homo sapiens) (UniProt Q96SB4); assay: Inhibition of human SRPK1 (2 to end residues) using RSRSRSRSRSRSRSR as substrate measured after 40 mins in presence of [gamma33P]ATP by scintillation counting method; parameters: scale not given: the % may be the effect or the level left
[20] = target: Serine-protein kinase ATM (Homo sapiens) (UniProt Q13315); assay: Inhibition of recombinant full-length human ATM assessed as residual activity at 10 uM using GST-cMyc-p53 as substrate measured after 40 mins by ELISA
[21] = target: PI3-kinase p110-alpha/p85-alpha (Homo sapiens) (UniProt P27986+P42336); assay: Inhibition of recombinant full-length human PI3K p110alpha/p85alpha assessed as residual activity at 10 uM using phosphatidylinositol-4, 5-bisphosphate as substrate measured after 40 mins by fluorescence assay; assay type: protein-complex assay
[22] = system: PI3-kinase p110-alpha/p85-alpha (Homo sapiens), P27986+P42336 [H1047R]; assay: Inhibition of recombinant full-length human PI3K p110alpha/p85alpha H1047R mutant assessed as residual activity at 10 uM using phosphatidylinositol-4, 5-bisphosphate as substrate measured after 40 mins by fluorescence assay; assay type: protein-complex assay
[23] = Toxicity in nude BALB/c mouse assessed as change in albumin level at 40 to 80 mg/kg, po once daily for 4 weeks measured post-last dose; assay type: organism-based; conditions: in vivo, 672 h

Sequence of Mitogen-activated protein kinase 1 (Homo sapiens) (P28482 whole entry): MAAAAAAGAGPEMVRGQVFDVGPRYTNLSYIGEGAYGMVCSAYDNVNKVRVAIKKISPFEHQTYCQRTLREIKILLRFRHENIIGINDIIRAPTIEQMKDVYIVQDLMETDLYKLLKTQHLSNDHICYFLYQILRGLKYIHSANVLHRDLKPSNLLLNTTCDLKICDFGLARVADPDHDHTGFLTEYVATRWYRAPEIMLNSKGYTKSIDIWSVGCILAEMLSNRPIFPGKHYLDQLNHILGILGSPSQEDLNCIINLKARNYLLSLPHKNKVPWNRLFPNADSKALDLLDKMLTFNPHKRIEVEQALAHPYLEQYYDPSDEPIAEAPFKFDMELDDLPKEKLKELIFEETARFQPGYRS
Sequence of Fibroblast growth factor receptor 1 (Homo sapiens) (P11362 22-822 limits assumed): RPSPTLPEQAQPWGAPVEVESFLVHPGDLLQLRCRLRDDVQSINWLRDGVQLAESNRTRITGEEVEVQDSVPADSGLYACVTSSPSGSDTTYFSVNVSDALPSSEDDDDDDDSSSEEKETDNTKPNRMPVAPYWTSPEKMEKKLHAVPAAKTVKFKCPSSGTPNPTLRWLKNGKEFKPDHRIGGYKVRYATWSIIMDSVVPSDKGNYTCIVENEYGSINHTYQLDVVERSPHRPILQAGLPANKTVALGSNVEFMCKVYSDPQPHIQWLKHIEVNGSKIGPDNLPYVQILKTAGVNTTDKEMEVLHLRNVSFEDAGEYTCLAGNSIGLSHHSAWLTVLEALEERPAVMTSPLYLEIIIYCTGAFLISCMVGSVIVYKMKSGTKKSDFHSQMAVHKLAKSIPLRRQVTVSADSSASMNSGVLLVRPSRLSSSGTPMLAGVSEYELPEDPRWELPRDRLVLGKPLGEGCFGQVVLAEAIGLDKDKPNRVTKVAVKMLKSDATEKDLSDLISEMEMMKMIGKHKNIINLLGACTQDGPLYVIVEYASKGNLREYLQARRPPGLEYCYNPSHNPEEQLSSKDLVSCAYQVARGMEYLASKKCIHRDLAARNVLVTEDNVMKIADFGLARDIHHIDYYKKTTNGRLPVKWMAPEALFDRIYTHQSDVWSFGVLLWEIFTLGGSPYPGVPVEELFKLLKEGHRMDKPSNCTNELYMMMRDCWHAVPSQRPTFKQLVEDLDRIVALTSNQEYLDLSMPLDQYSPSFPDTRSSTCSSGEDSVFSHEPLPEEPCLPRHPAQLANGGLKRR
Sequence of CDK12/Cyclin K (Homo sapiens) (O75909 whole entry, looked up): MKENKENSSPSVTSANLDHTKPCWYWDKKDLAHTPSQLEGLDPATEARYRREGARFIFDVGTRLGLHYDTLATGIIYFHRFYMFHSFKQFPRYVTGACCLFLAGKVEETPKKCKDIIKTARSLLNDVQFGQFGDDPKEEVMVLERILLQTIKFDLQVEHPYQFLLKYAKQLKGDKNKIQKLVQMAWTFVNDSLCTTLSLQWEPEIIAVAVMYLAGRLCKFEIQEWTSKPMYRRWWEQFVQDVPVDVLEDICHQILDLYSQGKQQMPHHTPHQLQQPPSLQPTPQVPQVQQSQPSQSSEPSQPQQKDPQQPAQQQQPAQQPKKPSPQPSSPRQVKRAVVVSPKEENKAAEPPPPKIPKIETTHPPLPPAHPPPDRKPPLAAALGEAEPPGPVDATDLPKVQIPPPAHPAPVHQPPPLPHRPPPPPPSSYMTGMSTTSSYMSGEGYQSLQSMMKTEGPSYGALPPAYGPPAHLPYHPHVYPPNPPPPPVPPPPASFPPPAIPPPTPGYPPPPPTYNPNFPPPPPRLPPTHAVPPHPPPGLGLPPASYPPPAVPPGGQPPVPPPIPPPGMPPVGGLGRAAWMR
Sequence of CDK12/Cyclin K (Homo sapiens) (Q9NYV4 whole entry, looked up): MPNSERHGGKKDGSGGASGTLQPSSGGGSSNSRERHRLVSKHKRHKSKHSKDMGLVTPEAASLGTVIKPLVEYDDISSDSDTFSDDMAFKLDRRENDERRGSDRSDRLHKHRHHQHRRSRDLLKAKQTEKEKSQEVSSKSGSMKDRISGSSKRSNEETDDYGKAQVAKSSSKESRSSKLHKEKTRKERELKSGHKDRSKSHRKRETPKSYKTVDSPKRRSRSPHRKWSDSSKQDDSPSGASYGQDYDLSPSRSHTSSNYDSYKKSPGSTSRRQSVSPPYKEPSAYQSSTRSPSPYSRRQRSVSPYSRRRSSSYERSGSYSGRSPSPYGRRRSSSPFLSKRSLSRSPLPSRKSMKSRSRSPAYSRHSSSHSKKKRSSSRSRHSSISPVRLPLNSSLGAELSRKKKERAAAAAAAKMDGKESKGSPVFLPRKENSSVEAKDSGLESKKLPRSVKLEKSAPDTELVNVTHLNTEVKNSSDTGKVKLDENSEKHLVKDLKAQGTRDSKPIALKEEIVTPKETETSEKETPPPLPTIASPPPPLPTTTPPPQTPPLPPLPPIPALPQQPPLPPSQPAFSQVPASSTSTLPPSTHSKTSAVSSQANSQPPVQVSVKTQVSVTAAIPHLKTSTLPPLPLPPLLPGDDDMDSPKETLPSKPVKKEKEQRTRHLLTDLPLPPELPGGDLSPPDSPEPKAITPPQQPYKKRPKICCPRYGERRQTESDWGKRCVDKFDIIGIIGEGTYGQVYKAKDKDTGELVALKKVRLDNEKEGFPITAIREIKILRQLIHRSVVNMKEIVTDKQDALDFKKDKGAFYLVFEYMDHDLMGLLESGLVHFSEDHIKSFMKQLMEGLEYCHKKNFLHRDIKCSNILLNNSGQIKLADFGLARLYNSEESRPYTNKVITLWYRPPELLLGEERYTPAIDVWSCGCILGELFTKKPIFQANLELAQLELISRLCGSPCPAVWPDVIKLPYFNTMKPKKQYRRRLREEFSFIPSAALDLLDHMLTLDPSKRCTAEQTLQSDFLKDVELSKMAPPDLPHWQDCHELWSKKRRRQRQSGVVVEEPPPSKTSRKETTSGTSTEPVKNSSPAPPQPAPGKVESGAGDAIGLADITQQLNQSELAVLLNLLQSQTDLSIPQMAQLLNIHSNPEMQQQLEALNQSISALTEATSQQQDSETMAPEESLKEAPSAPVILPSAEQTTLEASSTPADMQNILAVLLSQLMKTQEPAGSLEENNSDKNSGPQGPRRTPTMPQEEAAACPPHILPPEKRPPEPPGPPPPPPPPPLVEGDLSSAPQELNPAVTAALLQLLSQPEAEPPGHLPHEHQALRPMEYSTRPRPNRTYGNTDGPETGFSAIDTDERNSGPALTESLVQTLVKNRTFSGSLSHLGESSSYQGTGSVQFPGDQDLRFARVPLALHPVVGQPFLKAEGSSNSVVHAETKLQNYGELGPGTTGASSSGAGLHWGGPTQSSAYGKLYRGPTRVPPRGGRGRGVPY
Sequence of Cyclin-dependent kinase-like 1 (Homo sapiens) (Q00532 whole entry, the tested form may be a part): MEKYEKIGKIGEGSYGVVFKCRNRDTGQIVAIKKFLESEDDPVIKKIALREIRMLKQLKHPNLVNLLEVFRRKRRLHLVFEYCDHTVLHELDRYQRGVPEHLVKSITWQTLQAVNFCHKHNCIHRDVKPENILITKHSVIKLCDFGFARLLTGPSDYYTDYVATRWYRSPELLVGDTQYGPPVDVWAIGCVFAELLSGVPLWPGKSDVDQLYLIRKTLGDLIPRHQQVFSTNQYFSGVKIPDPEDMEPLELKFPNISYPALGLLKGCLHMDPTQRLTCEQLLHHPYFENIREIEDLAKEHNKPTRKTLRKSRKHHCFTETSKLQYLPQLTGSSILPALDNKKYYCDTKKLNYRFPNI
Sequence of Dual specificity mitogen-activated protein kinase kinase 4 (Homo sapiens) (P45985 whole entry): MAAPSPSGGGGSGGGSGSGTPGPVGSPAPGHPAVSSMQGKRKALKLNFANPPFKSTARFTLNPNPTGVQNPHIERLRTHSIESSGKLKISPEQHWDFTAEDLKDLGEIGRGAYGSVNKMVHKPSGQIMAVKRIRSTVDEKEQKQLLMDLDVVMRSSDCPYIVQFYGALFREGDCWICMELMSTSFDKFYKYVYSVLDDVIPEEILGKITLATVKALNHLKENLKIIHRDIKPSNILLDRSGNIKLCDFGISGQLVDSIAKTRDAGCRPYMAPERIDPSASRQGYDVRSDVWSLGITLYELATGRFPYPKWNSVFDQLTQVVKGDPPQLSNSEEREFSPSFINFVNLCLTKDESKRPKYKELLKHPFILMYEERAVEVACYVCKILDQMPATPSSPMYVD
Sequence of TGF-beta receptor type-1 (Homo sapiens), P36897 [T204D] (P36897 whole entry T204D, the tested form may be a part): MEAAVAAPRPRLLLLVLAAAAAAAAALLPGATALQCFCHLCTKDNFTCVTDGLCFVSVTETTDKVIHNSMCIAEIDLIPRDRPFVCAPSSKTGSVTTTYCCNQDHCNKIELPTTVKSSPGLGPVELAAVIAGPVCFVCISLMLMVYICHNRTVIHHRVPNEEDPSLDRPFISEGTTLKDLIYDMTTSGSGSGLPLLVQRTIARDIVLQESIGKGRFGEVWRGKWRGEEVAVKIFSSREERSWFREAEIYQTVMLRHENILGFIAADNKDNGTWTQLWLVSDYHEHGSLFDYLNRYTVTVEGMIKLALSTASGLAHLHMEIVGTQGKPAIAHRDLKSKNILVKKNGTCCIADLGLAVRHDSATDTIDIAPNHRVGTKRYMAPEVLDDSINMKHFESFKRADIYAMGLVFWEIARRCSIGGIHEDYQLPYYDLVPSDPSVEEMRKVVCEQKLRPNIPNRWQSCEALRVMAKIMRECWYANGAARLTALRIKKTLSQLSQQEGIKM
Sequence of Serine/threonine-protein kinase pim-1 (Homo sapiens) (P11309 whole entry, looked up): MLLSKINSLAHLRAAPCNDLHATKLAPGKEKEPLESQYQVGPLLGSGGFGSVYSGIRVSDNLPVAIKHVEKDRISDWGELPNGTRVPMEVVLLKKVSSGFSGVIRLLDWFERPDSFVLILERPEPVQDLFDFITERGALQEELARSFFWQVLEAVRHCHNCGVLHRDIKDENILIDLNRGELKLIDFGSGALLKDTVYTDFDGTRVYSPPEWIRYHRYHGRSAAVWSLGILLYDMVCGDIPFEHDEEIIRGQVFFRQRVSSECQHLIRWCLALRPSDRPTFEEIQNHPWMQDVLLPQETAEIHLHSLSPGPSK

## Cc1cc(C)c(CNc2nc(Cl)nc3c2ncn3C2CCCC2)c(=O)[nH]1
[1]
  Activity: 98%
[2]
  Activity: 119%
[3]
  Activity: 90%
Homo sapiens
  Activity: 112%
[4]
  Activity: 122%
[5]
  inhibition: -9%
[6]
  Activity: 108%
[7]
  Activity: 98.5%
[8]
  Activity: 114%
[9]
  Activity: 108%
[10]
  Activity: 110%
[11]
  Activity: 109%
[12]
  Activity: 104%
[13]
  Activity: 106%
[14]
  Activity: 102%
[15]
  Activity: 104%
[16]
  Activity: 133%
[17]
  Activity: 117%
[18]
  Activity: 106%
[19]
  Activity: 101%
[20]
  Activity: 95.5%
[21]
  Activity: 99.5%
[22]
  Activity: 101%
[23]
  Activity: Non-Toxic
